SMILES strings stand for the structures.

Assay [1] in a line: Intrinsic reactivity assay. The assay is classed as physicochemical. To be noted: pH 7.4, 37° C., suitably protected Cys-OMe. An excerpt:
Understanding of the intrinsic reactivity of electrophilic warheads with nucleophilic molecules is an important parameter influencing the stability of a compound in biological matrices. Lower intrinsic reactivity also mitigates the risk of covalent off-target reactivity. A common target residue for covalent drugs is cysteine, an amino acid containing a nucleophilic thiol side chain. The assay described here measures the rate of a compound forming a covalent bond with Boc-protected cysteine methyl ester or cysteine methyl ester that can be used as a surrogate for cysteines found on proteins.
Test compounds are prepared as 10 mM stock solutions in DMSO (Fisher cat #BP231-100). Compounds with molecular weight differing more than 3 Dalton are pooled and diluted to 5 μM in 100 mM potassium phosphate buffer, pH 7.4, containing 50 mM Boc-protected cysteine methyl ester (Combi-Blocks cat #QH-3424). Compounds incubated without Boc-protected cysteine methyl ester serve as controls. The reactions are incubated at 37° C., and reaction aliquots at different time intervals are sampled from the reaction and quenched with formic acid for subsequent LC-MS/MS analysis.
The LC-MS/MS analysis is done using a LC-40D×3 pump and SIL-40C×3 autosampler (Shimadzu) coupled to a QTRAP 6500+ (Sciex). Compounds are separated on a XBridge Premier BEH column (Waters). The sample run time is about 4 minutes per injection. The normalized peak area for each compound is extracted from the mass spectrometry raw files, and the data for each compound are plotted against time in Prism version 9.4 (GraphPad). Nonlinear regression using one-phase decay is used to estimate the rate of covalent bond formation with Boc-protected cysteine methyl ester or cysteine methyl ester and parent compound half-life (t½).

In assay [2] the target is T1, BTK wildtype protein (Homo sapiens (Human), UniProt Q06187). Kind of assay: BTK wildtype HTRF displacement assay. Format: binding. The settings on record: 1-hour incubation; read-out: BTK (wt) IC50. The method, boiled down:
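Tracer-displacement HTRF format: compound and tracer 239 compete at the BTK active site, detected via anti-GST-Tb on GST-tagged full-length enzyme. One-hour room-temperature incubation; compounds dosed at six four-fold steps down from 5 μM. Percent inhibition versus DMSO gives IC50 by constrained four-parameter logistic fit.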
Target sequence in this assay (Q06187 2-659): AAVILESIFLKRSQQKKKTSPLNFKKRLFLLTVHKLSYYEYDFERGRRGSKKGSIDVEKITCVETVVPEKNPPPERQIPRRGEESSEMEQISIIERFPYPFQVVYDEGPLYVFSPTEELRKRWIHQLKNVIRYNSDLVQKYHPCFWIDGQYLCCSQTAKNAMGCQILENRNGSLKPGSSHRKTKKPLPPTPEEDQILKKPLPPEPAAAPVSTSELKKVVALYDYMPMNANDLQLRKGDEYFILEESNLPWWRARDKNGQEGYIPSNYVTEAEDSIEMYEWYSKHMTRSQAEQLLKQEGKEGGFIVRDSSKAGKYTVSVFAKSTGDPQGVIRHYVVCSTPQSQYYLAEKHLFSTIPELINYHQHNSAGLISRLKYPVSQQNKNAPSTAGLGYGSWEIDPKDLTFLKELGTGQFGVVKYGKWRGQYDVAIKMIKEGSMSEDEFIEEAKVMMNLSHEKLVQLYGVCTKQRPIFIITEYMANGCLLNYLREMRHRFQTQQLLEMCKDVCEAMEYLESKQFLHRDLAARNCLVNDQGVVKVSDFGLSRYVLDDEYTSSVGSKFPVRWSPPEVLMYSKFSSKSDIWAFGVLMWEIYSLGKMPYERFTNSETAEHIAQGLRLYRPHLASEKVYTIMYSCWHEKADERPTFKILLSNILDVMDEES

In assay [3] the target is BTK C481S protein (Homo sapiens (Human), UniProt Q06187, C481S). Nature of the assay: BTK C481S HTRF displacement assay. Format: binding. To be noted: 1-hour incubation. The procedure, abridged: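 Tracer displacement read by HTRF after 1 hour at room temperature: GST-BTK C481S 2-659, 50 nM tracer 239 (Kd 54 nM), anti-GST antibody, compound in six four-fold doses from 5 μM. Percent inhibition versus DMSO fitted (bottom 0, top 100) for IC50, converted to KI via Cheng-Prusoff.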
BTK C481S protein, sequence (Q06187 2-659 C481S): as the sequence (Q06187 2-659) above, with C480S counted along it

Assay [4] concerns the target MGLL (Homo sapiens (Human), UniProt Q99685, K36A/L169S/L176S). Nature of the assay: MGLL compound modification assay (intact protein LC-MS). The assay is classed as binding. To be noted: at 4 hours; compound concentration of 3 μM. How it is done:
Test compounds were prepared as 10 mM stock solutions in DMSO (Fisher cat #BP231-100). Human recombinant MGLL protein 1-303 containing K36A, L169S, L176S amino acid substitutions were produced at in house. On the day of the assay, MGLL protein was diluted to 2 μM in assay buffer (20 mM Hepes, pH 7.5, 150 mM NaCl, 1 mM MgCl2, 1 mM DTT). For testing MGLL modification, compounds were diluted to 50× final test concentration in DMSO in 96-well storage plates. […] of the diluted 50× compounds were added to appropriate wells in the PCR plate (Fisher cat #AB-0800). 49 μL of the stock protein solution was added to each well of the 96-well PCR plate to form a mixture. The plate was sealed well with aluminum plate seal and stored in a drawer at room temperature. […]
The extent of covalent modification of MGLL proteins was determined by liquid chromatography electrospray mass spectrometry analysis of the intact proteins using a Thermo Q-Exactive Plus mass spectrometer. […] The recorded protein mass spectrum was deconvoluted from the raw data file using Protein Deconvolution v4.0 (Thermo). […]
Certain compounds disclosed herein are expected to covalently modify MGLL protein when assessed using the assay described above by at least 1%, such as by at least 5%, 10%, 20%, 30%, 40%, or at least 50%.

The target of assay [5] is T1, BTK wildtype protein. Kind of assay: Kinact/KI determination for BTK protein inhibitors (Kobs). Format: binding. As for the experimental part: Test compounds were prepared as 10 mM stock solutions in DMSO (Fisher cat #BP231-100). Human recombinant BTK wildtype protein 393-659 or BTK C481S protein 393-659 was produced in house or purchased from Saromics Biostructures AB (Lund, Sweden). BTK protein was diluted to 1 μM in buffer (20 mM Hepes, pH 7.5, 150 mM NaCl, 1 mM MgCl2, 1 mM DTT). For testing BTK modification, compounds were diluted to 50× final test concentration in DMSO in 96-well storage plates. 1 μL of the diluted 50× compounds were added to appropriate wells in the PCR plate (Fisher cat #AB-0800). Increasing concentrations of compounds were added to separate wells, resulting in final assay compound concentrations of 3 μM, 10 μM, 30 μM and 100 μM. 49 μL of the stock protein solution was added to each well of the 96-well PCR plate. Reactions were mixed carefully. The plate was sealed well with aluminum plate seal and stored in a drawer at room temperature. After different incubation times, the reactions were quenched by adding 5 μL of 2% formic acid (Fisher cat #A117-50) in MilliQ H2O to each well followed by mixing with a pipette. The plate was then resealed with aluminum seal and stored until mass spectrometry analysis.
The extent of covalent modification of BTK proteins was determined by liquid chromatography electrospray mass spectrometry analysis of the intact proteins using a Thermo Q-Exactive Plus mass spectrometer. 20 μL of sample was injected onto a bioZen 3.6 μm Intact C4 column (Phenomenex cat #00B-4767-AN) placed in a column oven set to 40° C. and separated using a LC gradient from 20% to 60% solvent B. Solvent A was 0.1% formic acid and solvent B was 0.1% formic acid in acetonitrile. HESI source settings were set to 40, 5 and 1 for the sheath, auxiliary and sweep gas flow, respectively. The spray voltage was 4 kV, and the capillary temperature was 320° C. S-lens RF level was 50 and auxiliary gas heater temperature was set to 200° C. The mass spectrometry was acquired using a scan range from 650 to 1750 m/z using positive polarity at a mass resolution of 70,000, AGC target of 1e6 ions and maximum injection time of 250 ms. The recorded protein mass spectrum was deconvoluted from the raw data file using Protein Deconvolution v4.0 (Thermo). The protein mass, adduct masses and their corresponding peak intensities were exported to Excel (Microsoft). The peak intensities for the unmodified and modified protein were used to calculate the percent covalent modification of the BTK protein based on the following equation: % BTK protein modification=((BTK−compound)/(BTK)+(BTK−Compound))*100.
The Kinact/KI is a rate constant describing the efficiency of covalent bond formation resulting from the potency (KI) of the first reversible binding event and the maximum potential rate (Kinact) of inactivation. The percent […] protein modification was plotted as a function of time using Prism version 9.4.1 (GraphPad), and the observed rate of modification (Kobs), a first-order rate constant with units of inverse time, was estimated using nonlinear regression at each compound concentration. […] If Kobs is increasing with compound concentration, KI is higher than 3 μM. Kinact/KI can be estimated by plotting Kobs values against each compound concentration used in separate reactions. The Kobs values are fitted to determine Kinact and KI using the following equation, Kobs=(Kinact×[compound conc])/(KI+[compound conc]).
Target sequence in this assay (Q06187 393-659): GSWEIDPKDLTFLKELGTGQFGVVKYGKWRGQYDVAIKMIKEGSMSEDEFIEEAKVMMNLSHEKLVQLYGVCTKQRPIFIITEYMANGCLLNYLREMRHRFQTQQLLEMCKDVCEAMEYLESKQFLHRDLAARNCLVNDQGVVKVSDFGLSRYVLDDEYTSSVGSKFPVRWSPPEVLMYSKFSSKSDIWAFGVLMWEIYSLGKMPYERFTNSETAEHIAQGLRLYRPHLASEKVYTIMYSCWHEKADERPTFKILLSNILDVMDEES

MGLL, sequence (Q99685 whole entry K36A/L169S/L176S): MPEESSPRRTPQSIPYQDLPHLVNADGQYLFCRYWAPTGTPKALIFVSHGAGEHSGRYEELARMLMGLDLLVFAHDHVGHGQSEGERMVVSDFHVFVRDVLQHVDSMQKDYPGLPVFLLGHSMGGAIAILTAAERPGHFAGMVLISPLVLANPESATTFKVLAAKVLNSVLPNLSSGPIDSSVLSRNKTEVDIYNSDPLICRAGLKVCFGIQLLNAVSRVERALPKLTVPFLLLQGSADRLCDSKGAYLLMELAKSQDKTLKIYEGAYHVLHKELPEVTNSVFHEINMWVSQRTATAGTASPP

With `C=CC(=O)N(CC)C1CC1`, in assay [1], the “K (min^−1), intrinsic rate constant” value turned out to be 0.0159 min⁻¹.

As for `CCN(C(=O)n1cncn1)C1CC1`, the “K (min^−1), intrinsic rate constant” value in assay [1] is less than 0.0005 min⁻¹.

With `CC1CCCCN1C(=O)n1cncn1` (stereo not drawn), the “K (min^−1), intrinsic rate constant” value in assay [1] is less than 0.0005 min⁻¹.

As to `CCN(CC)C(=O)n1cncn1`, in assay [1], the “K (min^−1), intrinsic rate constant” value was less than 0.0005 min⁻¹.

Regarding `CN(C(=O)n1cncn1)C1CCC(n2nc(-c3ccc(Oc4ccccc4)cc3)c3c(N)ncnc32)CC1` (stereo not drawn) [Compound 133, N-(4-(4-amino-3-(4-phenoxyphenyl)-1H-pyrazolo[3,4-d]pyrimidin-1-yl)cyclohexyl)-N-methyl-1H-1,2,4-triazole-1-carboxamide], the IC50 in assay [2] and in assay [3] was no more than 1000 nM throughout. Further, the “% MGLL protein modification” value in assay [4] was “over 50%”.

Regarding `NC(=O)c1c(-c2ccc(Oc3ccccc3)cc2)nn2c1NCCC2[C@H]1CCCN1C(=O)n1cncn1` (stereo partly drawn) [Compound 140, 7-((R)-1-(1H-1,2,4-triazole-1-carbonyl)pyrrolidin-2-yl)-2-(4-phenoxyphenyl)-4,5,6,7-tetrahydropyrazolo[1,5-a] pyrimidine-3-carboxamide], the “BTK (wt) Kobs” value in assay [5] is 132, 134, 136, 137, 138, 140, 150, 152, 153, 154, 155, M^−1 · s^−1. For the same compound, the IC50 in assay [2] is greater than 1000 nM; in assay [3] it was no more than 1000 nM.

On to `C=CC(=O)N(CC)CC`, for which, in assay [1], the “K (min^−1), intrinsic rate constant” value turned out to be 0.0012 min⁻¹.

As to `COc1ccc(F)cc1C(=O)NCc1ccc(-c2nn(C(C)C(C)N(C)C(=O)n3cnnc3)c(N)c2C(N)=O)cc1` (stereo not drawn) [Compound 155, N-(3-(5-amino-4-carbamoyl-3-(4-((5-fluoro-2-methoxybenzamido)methyl)phenyl)-1H-pyrazol-1-yl)butan-2-yl)-N-methyl-4H-1,2,4-triazole-4-carboxamide], in assay [5], the “BTK (wt) Kobs” value was 132, 134, 136, 137, 138, 140, 150, 152, 153, 154, 155, M^−1 · s^−1. Further, the values for the concentration for half-maximal inhibition (IC50) in assay [2] and in assay [3] were greater than 1000 nM and no more than 1000 nM, respectively.

For `C=CC(=O)N1CCCCC1C` (stereo not drawn), the “K (min^−1), intrinsic rate constant” value in assay [1] was 0.0029 min⁻¹.

With `COc1ccc(F)cc1C(=O)NCc1ccc(-c2nn(C3CCCC(CN(C)C(=O)n4cncn4)C3)c3ncnc(N)c23)cc1` (stereo not drawn) [Compound 260, N-((3-(4-amino-3-(4-((5-fluoro-2-methoxybenzamido)methyl)phenyl)-1H-pyrazolo[3,4-d]pyrimidin-1-yl)cyclohexyl)methyl)-N-methyl-1H-1,2,4-triazole-1-carboxamide], the “BTK (wt) Kobs” value in assay [5] is recorded as 248, 249, 250, 253, 254, 256, 259, 260, 261, 264, 265, M^−1 · s^−1. Further, the IC50 in assay [2] and in assay [3] was no more than 1000 nM each time.

In the case of `COc1ccc(F)cc1C(=O)NCc1ccc(-c2nn(C(C)C(C)N(C)C(=O)n3cncn3)c3ncnc(N)c23)cc1` (stereo not drawn) [Compound 250, N-(3-(4-amino-3-(4-((5-fluoro-2-methoxybenzamido)methyl)phenyl)-1H-pyrazolo[3,4-d]pyrimidin-1-yl)butan-2-yl)-N-methyl-1H-1,2,4-triazole-1-carboxamide], the “BTK (wt) Kobs” value in assay [5] is on record as 248, 249, 250, 253, 254, 256, 259, 260, 261, 264, 265, M^−1 · s^−1. For the same compound, the 50% inhibitory concentration (IC50) in assay [2] and in assay [3] was no more than 1000 nM throughout.

As for `COc1ccc(F)cc1C(=O)NCc1ccc(-c2nn(C(CCCN(C)C(=O)n3cncn3)N(C)C)c3ncnc(N)c23)cc1` (stereo not drawn) [Compound 254, N-(4-(4-amino-3-(4-((5-fluoro-2-methoxybenzamido)methyl)phenyl)-1H-pyrazolo[3,4-d]pyrimidin-1-yl)-4-(dimethyl-amino)butyl)-N-methyl-1H-1,2,4-triazole-1-carboxamide], in assay [5], the “BTK (wt) Kobs” value is 248, 249, 250, 253, 254, 256, 259, 260, 261, 264, 265, M^−1 · s^−1. Besides, the IC50 in assay [2] and in assay [3] was greater than 1000 nM each time.

On to `COc1ccc(F)cc1C(=O)NCc1ccc(-c2nn(C[C@@H]3CCC[C@H]3CN(C)C(=O)n3cncn3)c3ncnc(N)c23)cc1` [Compound 153, N-(((1R,2R)-2-((4-amino-3-(4-((5-fluoro-2-methoxybenzamido)methyl)phenyl)-1H-pyrazolo[3,4-d]pyrimidin-1-yl)methyl)cyclopentyl)methyl)-N-methyl-1H-1,2,4-triazole-1-carboxamide], for which the “BTK (wt) Kobs” value in assay [5] is reported as 132, 134, 136, 137, 138, 140, 150, 152, 153, 154, 155, M^−1 · s^−1. Also, the IC50 in assay [2] and in assay [3] was no more than 1000 nM throughout.

Broadly, the IC50 is the concentration that inhibits the measured activity by half.

Values taken from patent US20240294531A1, “COVALENT HETEROCYCLES AND USES THEREOF” (Kumquat Biosciences Inc., priority 2022, published 2024).
